According to patent US8679442B2, “Fullerene compositions and methods for photochemical purification” (William Marsh Rice University, priority 2009, dated 2014):

Assays:
[1] = Triplet-state decay kinetics by laser flash photolysis; type: physicochemical; conditions: hexane solution, comparable experimental conditions
Protocol: Measurement of Triplet-State Decay Kinetics in Hexakis-Substituted C60 Fullerene Derivatives. Decay kinetics of the triplet states for the hexakis-substituted C60 derivatives were measured by laser flash photolysis using a 308 nm laser pulse (10-20 mJ with a pulse width of 10 ns). A xenon lamp was used as the monitoring source. […] The test solutions were purged with bubbling argon gas for 15 minutes and then sealed from the atmosphere. Instantaneous generation of the triplet state was induced by laser pulse irradiation with subsequent monitoring between 650 and 770 nm, depending on the specific functional groups present in each hexakis-substituted C60 fullerene derivative.

[2] = Photochemically-induced singlet oxygen production, furfuryl alcohol (FFA) degradation under BLB lamps; conditions: 50 μM derivative, 0.5 mM FFA
Protocol: Photochemically-Induced Singlet Oxygen Production from Hexakis-Substituted C60 Fullerene Derivatives. Photochemical generation of singlet oxygen was performed using a magnetically stirred 60 mL cylindrical quartz reactor surrounded by six 4 W black light blue (BLB) lamps (emission wavelength region: 350-400 nm, Philips TL4W) at ambient temperature (22° C.). The incident light intensity was 3.79×10^−4 Einstein·min^−1L^−1. Reaction solutions containing 50 μM of hexakis-substituted C60 fullerene derivatives 1-4 and 0.5 mM furfuryl alcohol (FFA) as an indicator/reactant for singlet oxygen formed were buffered at pH=7 using 10 mM phosphate buffer. Thereafter, the solutions were exposed to the light source. As the photochemical reaction proceeded, 1 mL sample aliquots were periodically withdrawn from the reactor using a syringe, filtered through a 0.22 μm PTFE filter (Millipore), and injected into a 2 mL amber glass vial for further analysis. The residual FFA concentration was quantified using HPLC. […] Generation of singlet oxygen from commercially-available fullerol is presented for comparison purposes.
Table 1 summarizes the initial degradation rate of FFA in the presence of hexakis-substituted C60 fullerene derivatives 1-4 in comparison to commercially available fullerol and Rose Bengal. Initial FFA degradation rates of hexakis-substituted C60 fullerene derivatives 1-4 in the presence of L-histidine and t-butanol are also presented for comparison. […] As shown by the FFA degradation rate, the singlet oxygen production of the C60 fullerene derivatives was greatest for hexakis-substituted C60 fullerene derivative 4 and smallest for hexakis-substituted C60 fullerene derivative 1.

Compound | triplet state formation [1] | Initial FFA Degradation Rate, No Scavenger ([2]; pH 7, 10 mM phosphate buffer, BLB 350-400 nm, no scavenger) | Initial FFA Degradation Rate, L-Histidine Scavenger ([2]; pH 7, BLB 350-400 nm, excess L-histidine) | Initial FFA Degradation Rate, t-Butanol Scavenger ([2]; pH 7, BLB 350-400 nm, t-butanol)
c12c3c4c5c1c1c6c7c2c2c8c3c3c9c4c4c%10c5c5c1c1c6c6c%11c7c2c2c7c8c3c3c8c9c4c4c9c%10c5c5c1c1c6c6c%11c2c2c7c3c3c8c4c4c9c5c1c1c6c2c3c41 [C60, Buckminsterfullerene] | not detected |  |  | 
O=C([O-])c1c(Cl)c(Cl)c(Cl)c(Cl)c1-c1c2cc(I)c(=O)c(I)c-2oc2c(I)c([O-])c(I)cc12.[Na+].[Na+] [Rose Bengal] |  | 16.34 ± 0.29 | 0.07 ± 0.04 | 16.70 ± 0.47
